Assay results taken from US10350210B2, “EGFR and ALK dual inhibitor” (PRECEDO PHARMACEUTICALS CO., LTD, priority 2015, dated 2019).

Tests used:
[1] = tested on: A549; experiment: Growth of cancer cells (Cell Titer-Glo viability), A549; type: cell-based; conditions: Homo sapiens; A549 (wild-type EGFR), 72 hrs
Excerpt: (§1) By testing the effect of the novel kinase inhibitors on the proliferation of cancer cells, the selectivity of the compounds of the present disclosure in inhibiting the proliferation of cancer cells was further assessed. In this example, human non-small cell lung cancer cell NCI-H1975 (expressing EGFR L858R/T790M double mutant gene), human skin squamous carcinoma cell A431 (expressing wild-type EGFR gene), non-small cell lung cancer NCI-H3255 (expressing EGFR L858R mutant gene), non-small cell lung cancer cell NCI-H3122 (expressing ALK gene), human non-small cell lung cancer cell A549 (expressing wild-type EGFR gene), human non-small cell lung cancer cell NCI-H2122 (expressing wild-type EGFR gene), human non-small cell lung cancer cell NCI-H460 (expressing wild-type EGFR gene), human non-small cell lung cancer cell PC-9 (expressing EGFR delE746_A750 mutant gene), Chinese hamster ovary cell CHO (Cricetulus griseus, hamster, Chinese, ovary), Chinese hamster lung cell CHL, human non-small cell lung cancer cell HCC827 (expressing mutant EGFR del19 gene), human lung adenocarcinoma cell HCC4006 (expressing mutant EGFR del19 gene), human non-small cell lung cancer cell NCI-H2228 (expressing wild-type ALK gene), and mouse primary B cell BaF3 were used, and the above cells were all purchased from ATCC (US). In addition, mouse BaF3-TEL-ALK (stably expressing ALK kinase), mouse BaF3-ALK-F1174L (stably expressing mutant ALK F1174L kinase), mouse BaF3-NPM-ALK (stably expressing ALK kinase), mouse BaF3-TEL-EGFR (stably expressing EGFR kinase), mouse BaF3-TEL-EGFR-T790M (stably expressing EGFR T790M mutant kinase), mouse BaF3-FL-EGFR-Del19 (stably expressing EGFR delE746_A750 mutant kinase), mouse BaF3-TEL-EGFR-L858R (stably expressing EGFR L858R mutant kinase), mouse BaF3-FL-EGFR-T790M-L858R (stably expressing EGFR T790M/L858R mutant kinase), mouse BaF3-TEL-INSR (stably expressing INSR protein), mouse BaF3-TEL-IGF1R (stably expressing IGF1R Protein), mouse BaF3-EML4-ALK (stably expressing EML4-ALK Protein), mouse BaF3-TEL-JAK3 (stably expressing JAK3 kinase protein), mouse BaF3-TEL-CSF1R (stably expressing CSF1R protein), and mouse BaF3-TEL-ALK-F1196M (stably expressing ALK F1196M mutant kinase) were also used in this example. The above cell lines were all established by our laboratory via the following process: kinase proteins or protein domain sequences of human ALK, ALK F1174L, EGFR, EGFR T790M, EGFR delE746_A750, EGFR L858, EGFR T790M/L858R, INSR, IGF1R, EML4-ALK, JAK3, CSF1R, ALK F1196M were amplified respectively by PCR, and were respectively inserted into MSCV-Puro vector (Clontech) with N-terminal TEL fragments and/or NPM fragments and/or TPR fragments; the resultants were stably transfected into mouse BaF3 cells by the means of retrovirus, and the IL-3 growth factors were removed, and eventually the ALK, ALK F1174L, EGFR, EGFR T790M, EGFR delE746_A750, EGFR L858, EGFR T790M/L858R, INSR, IGF1R, EML4-ALK, JAK3, CSF1R, ALK F1196M-transferred protein dependent cell lines were obtained.
(§2) The number of viable cells was determined quantitatively by a microplate reader using Cell Titer-Glo® (Promega, US) chemiluminescence cell viability assay kit.

[2] = tested on: HCC827; experiment: Growth of cancer cells (Cell Titer-Glo viability), HCC827; type: cell-based; conditions: Homo sapiens; HCC827 (mutant EGFR del19), 72 hrs
Excerpt: as §1, §2

[3] = tested on: NCI-H3122; experiment: Growth of cancer cells (Cell Titer-Glo viability), NCI-H3122; type: cell-based; conditions: Homo sapiens; NCI-H3122 (expressing ALK gene), 72 hrs; read-out: GI50
Excerpt: as §1, §2

[4] = tested on: BaF3; experiment: Cell growth (Cell Titer-Glo viability), BaF3; type: cell-based; conditions: BaF3 mouse primary B cell, 72 hrs
Excerpt: as §1, §2

[5] = tested on: A431; experiment: Growth of cancer cells (Cell Titer-Glo viability), A431; type: cell-based; conditions: Homo sapiens, A-431; A431 (wild-type EGFR), 72 hrs; read-out: GI50
Excerpt: as §1, §2

[6] = tested on: BaF3-FL-EGFR-Del19; experiment: Cell growth (Cell Titer-Glo viability), BaF3-FL-EGFR-Del19; type: cell-based; conditions: Mus musculus; BaF3-FL-EGFR-Del19 (EGFR delE746_A750 mutant kinase), 72 hrs
Excerpt: as §1, §2

[7] = tested on: PC-9; experiment: Growth of cancer cells (Cell Titer-Glo viability), PC-9; type: cell-based; conditions: Homo sapiens; PC-9 (EGFR delE746_A750 mutant), 72 hrs
Excerpt: as §1, §2

[8] = tested on: CHL; experiment: Cell growth (Cell Titer-Glo viability), CHL; type: cell-based, Chinese hamster; conditions: Cricetulus griseus; CHL Chinese hamster lung cell, 72 hrs; read-out: GI50
Excerpt: as §1, §2

[9] = tested on: CHO; experiment: Cell growth (Cell Titer-Glo viability), CHO; type: cell-based, Chinese hamster; conditions: Cricetulus griseus; CHO Chinese hamster ovary cell, 72 hrs; read-out: GI50
Excerpt: as §1, §2

[10] = tested on: NCI-H2228; experiment: Growth of cancer cells (Cell Titer-Glo viability), NCI-H2228; type: cell-based; conditions: Homo sapiens; NCI-H2228 (wild-type ALK), 72 hrs
Excerpt: as §1, §2

[11] = tested on: BaF3-ALK-F1174L; experiment: Cell growth (Cell Titer-Glo viability), BaF3-ALK-F1174L; type: cell-based; conditions: Mus musculus; BaF3-ALK-F1174L (mutant ALK F1174L kinase), 72 hrs
Excerpt: as §1, §2

[12] = tested on: BaF3-TEL-EGFR-T790M; experiment: Cell growth (Cell Titer-Glo viability), BaF3-TEL-EGFR-T790M; type: cell-based; conditions: Mus musculus; BaF3-TEL-EGFR-T790M (EGFR T790M mutant kinase), 72 hrs
Excerpt: as §1, §2

[13] = tested on: BaF3-TEL-ALK; experiment: Cell growth (Cell Titer-Glo viability), BaF3-TEL-ALK; type: cell-based; conditions: Mus musculus; BaF3-TEL-ALK (stably expressing ALK kinase), 72 hrs
Excerpt: as §1, §2

[14] = tested on: NCI-H1975; experiment: Growth of cancer cells (Cell Titer-Glo viability), NCI-H1975; type: cell-based; conditions: Homo sapiens; NCI-H1975 (EGFR L858R/T790M double mutant), 72 hrs
Excerpt: as §1, §2

[15] = tested on: NCI-H2122; experiment: Growth of cancer cells (Cell Titer-Glo viability), NCI-H2122; type: cell-based; conditions: Homo sapiens; NCI-H2122 (wild-type EGFR), 72 hrs
Excerpt: as §1, §2

[16] = tested on: HCC4006; experiment: Growth of cancer cells (Cell Titer-Glo viability), HCC4006; type: cell-based; conditions: Homo sapiens; HCC4006 (mutant EGFR del19), 72 hrs
Excerpt: as §1, §2

[17] = tested on: BaF3-TEL-EGFR; experiment: Cell growth (Cell Titer-Glo viability), BaF3-TEL-EGFR; type: cell-based; conditions: Mus musculus; BaF3-TEL-EGFR (stably expressing EGFR kinase), 72 hrs
Excerpt: as §1, §2

[18] = tested on: NCI-H460; experiment: Growth of cancer cells (Cell Titer-Glo viability), NCI-H460; type: cell-based; conditions: Homo sapiens; NCI-H460 (wild-type EGFR), 72 hrs
Excerpt: as §1, §2

[19] = tested on: NCI-H3255; experiment: Growth of cancer cells (Cell Titer-Glo viability), NCI-H3255; type: cell-based; conditions: Homo sapiens; NCI-H3255 (EGFR L858R mutant), 72 hrs
Excerpt: as §1, §2

[20] = tested on: BaF3-NPM-ALK; experiment: Cell growth (Cell Titer-Glo viability), BaF3-NPM-ALK; type: cell-based; conditions: Mus musculus; BaF3-NPM-ALK (stably expressing ALK kinase), 72 hrs
Excerpt: as §1, §2

Row | GI50 [1] [nM] | GI50 [2] [nM] | GI50 [3] [nM] | GI50 [4] [nM] | GI50 [5] [nM] | GI50 [6] [nM] | GI50 [7] [nM] | GI50 [10] [nM] | GI50 [11] [nM] | GI50 [12] [nM] | GI50 [13] [nM] | GI50 [14] [nM] | GI50 [15] [nM] | GI50 [16] [nM] | GI50 [17] [nM] | GI50 [18] [nM] | GI50 [19] [nM] | GI50 [20] [nM] | SMILES | GI50 [8] [nM] | GI50 [9] [nM]
1 |  | 6.2 | < 0.3 | 1600 | 440 | 2 | 50 | 330 | 16 | 100 | < 0.3 | 59 | 230 | 14 | 810 | 680 | 130 | 2 | C=CC(=O)Nc1cc(Nc2ncc(C)c(Nc3ccccc3S(=O)(=O)C(C)C)n2)c(OC)cc1N1CCC(N2CCN(C)CC2)CC1 [Compound 24, N-(5-(4-(2-(isopropylsulfonyl)phenylamino)-5-methylpyrimidin-2-ylamino)-4-methoxy-2-(4-(4-methylpiperazin-1-yl)piperidin-1-yl)phenyl)acrylamide] | 660 | 1700
2 |  | 150 | < 0.3 | 470 | 840 | 120 | 53 | 280 | 73 | 230 | < 0.3 | 880 | 150 | 260 | 410 | 440 | 640 | < 3 | CCC(=O)Nc1cc(Nc2ncc(Cl)c(Nc3ccccc3S(=O)(=O)C(C)C)n2)c(OC)cc1N1CCC(N2CCN(C)CC2)CC1 [Compound 30, N-(5-(5-chloro-4-(2-(isopropylsulfonyl)phenylamino)pyrimidin-2-ylamino)-4-methoxy-2-(4-(4-methylpiperazin-1-yl)piperidin-1-yl)phenyl)propionamide] | 730 | 1900
3 | 1500 | 370 | < 0.3 |  | 1300 |  | 540 | 580 | 140 | 420 | < 0.3 |  | 310 | 440 | 560 | 470 | 1000 | < 3 | COc1cc(N2CCC(N3CCN(C)CC3)CC2)ccc1Nc1ncc(Cl)c(Nc2ccccc2S(=O)(=O)C(C)C)n1 [TAE-684, reference compound] |  | 

The remaining lines, values behind:

Row | SMILES | GI50 [1] [nM] | GI50 [2] [nM] | GI50 [3] [nM] | GI50 [4] [nM] | GI50 [5] [nM] | GI50 [6] [nM] | GI50 [7] [nM] | GI50 [10] [nM] | GI50 [11] [nM] | GI50 [12] [nM] | GI50 [13] [nM] | GI50 [14] [nM] | GI50 [15] [nM] | GI50 [16] [nM] | GI50 [17] [nM] | GI50 [18] [nM] | GI50 [19] [nM] | GI50 [20] [nM] | GI50 [8] [nM] | GI50 [9] [nM]
4 | C=CC(=O)Nc1cc(Nc2ncc(Cl)c(Nc3ccccc3S(=O)(=O)C(C)C)n2)c(OC)cc1N1CCN(S(C)(=O)=O)CC1 [Compound 5, N-(5-(5-chloro-4-(2-(isopropylsulfonyl)phenylamino)pyrimidin-2-ylamino)-4-methoxy-2-(4-(methylsulfonyl)piperazin-1-yl)phenyl)acrylamide] | 3300 | 44 | < 0.3 | 2800 | 1100 | 7 | 39 | 240 | 2300 | 53 | 10 | 40 | 170 | 160 |  |  |  |  | 2300 | 5200
5 | C=CC(=O)Nc1cc(Nc2ncc(Cl)c(Nc3ccccc3S(=O)(=O)C(C)C)n2)c(OC)cc1N1CCCCC1 [Compound 6, N-(5-(5-chloro-4-(2-(isopropylsulfonyl)phenylamino)pyrimidin-2-ylamino)-4-methoxy-2-(piperidin-1-yl)phenyl) acrylamide] | 330 | 51 | 29 | 340 | 540 | 6 | 27 | 200 | 310 | 18 | 15 | 240 | 880 | 260 |  |  |  |  | > 10000 | 360
6 | C=CC(=O)Nc1cc(Nc2ncc(Cl)c(Nc3ccccc3S(=O)(=O)C(C)C)n2)c(OC)cc1N1CCC(N2CCN(C)CC2)CC1 [Compound 8, N-(5-(5-chloro-4-(2-(isopropylsulfonyl)phenylamino)pyrimidin-2-ylamino)-4-methoxy-2-(4-(4-methylpiperazin-1-yl)piperidin-1-yl)phenyl)acrylamide] |  | 2.7 | < 0.3 | 460 | 370 | 2 | 53 | 350 | 29 | 46 | < 0.3 | 45 | 200 | 14 | 430 | 660 | 110 | < 3 | 800 | 460
